From patent publication US20250353864A1, “INDAZOLE CONTAINING MACROCYCLES AND THEIR USE” (BLOSSOMHILL THERAPEUTICS, INC., priority 2022, published 2025)

Key:
Type in all cases: biochemical
EGFR L858R mutant = EGFR L858R mutant (Homo sapiens (Human), UniProt P00533, L858R); experiment: HotSpot radiometric kinase assay, EGFR L858R mutant; settings: 10 μM ATP
In short: (§1)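 IC50 values come from curve fits of ^33P incorporation captured on P81 filters after acid washing. Kinase reactions ran 120 min at room temperature with 10 μM ATP, added about 20 min after compound. Buffer was Hepes pH 7.5 containing Mg, DTT and 1% DMSO.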

EGFR Δ746-750 mutant = EGFR Δ746-750 mutant (Homo sapiens (Human), UniProt P00533, DEL746-750); experiment: HotSpot radiometric kinase assay, EGFR Δ746-750 mutant; settings: 10 μM ATP
In short: as §1

[1] = molecular target: EGFR Δ746-750/C797S mutant (Homo sapiens (Human), UniProt P00533, C797S/DEL746-750); experiment: HotSpot radiometric kinase assay, EGFR Δ746-750/C797S mutant; settings: 10 μM ATP
In short: as §1

EGFR (D770_N771insNPG) = EGFR (D770_N771insNPG) (Homo sapiens (Human), UniProt P00533, INS770NPG); experiment: HotSpot radiometric kinase assay, EGFR (D770_N771insNPG); settings: 10 μM ATP, read-out: EGFR (Δ770_N771insNPG) IC50
In short: as §1

EGFR WT = EGFR WT (Homo sapiens (Human), UniProt P00533); experiment: HotSpot radiometric kinase assay (Reaction Biology), EGFR WT; settings: 10 μM ATP
In short: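 Radiometric filter-binding read-out: incorporated 33P was retained on P81 ion-exchange paper after washing away unbound phosphate. Reactions ran 120 min at room temperature with 10 μM final ATP, following ~20 min compound preincubation in Hepes pH 7.5 buffer containing 1% DMSO. IC50 from fitted curves.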

EGFR L858R/T790M mutant = EGFR L858R/T790M mutant (Homo sapiens (Human), UniProt P00533, L858R/T790M); experiment: HotSpot radiometric kinase assay, EGFR L858R/T790M mutant; settings: 10 μM ATP
In short: as §1

[2] = molecular target: EGFR L858R/T790M/C797S mutant (Homo sapiens (Human), UniProt P00533, C797S/L858R/T790M); experiment: HotSpot radiometric kinase assay, EGFR L858R/T790M/C797S mutant; settings: 10 μM ATP
In short: as §1

Sequence of EGFR L858R/T790M mutant (P00533 25-1210 T790M/L858R): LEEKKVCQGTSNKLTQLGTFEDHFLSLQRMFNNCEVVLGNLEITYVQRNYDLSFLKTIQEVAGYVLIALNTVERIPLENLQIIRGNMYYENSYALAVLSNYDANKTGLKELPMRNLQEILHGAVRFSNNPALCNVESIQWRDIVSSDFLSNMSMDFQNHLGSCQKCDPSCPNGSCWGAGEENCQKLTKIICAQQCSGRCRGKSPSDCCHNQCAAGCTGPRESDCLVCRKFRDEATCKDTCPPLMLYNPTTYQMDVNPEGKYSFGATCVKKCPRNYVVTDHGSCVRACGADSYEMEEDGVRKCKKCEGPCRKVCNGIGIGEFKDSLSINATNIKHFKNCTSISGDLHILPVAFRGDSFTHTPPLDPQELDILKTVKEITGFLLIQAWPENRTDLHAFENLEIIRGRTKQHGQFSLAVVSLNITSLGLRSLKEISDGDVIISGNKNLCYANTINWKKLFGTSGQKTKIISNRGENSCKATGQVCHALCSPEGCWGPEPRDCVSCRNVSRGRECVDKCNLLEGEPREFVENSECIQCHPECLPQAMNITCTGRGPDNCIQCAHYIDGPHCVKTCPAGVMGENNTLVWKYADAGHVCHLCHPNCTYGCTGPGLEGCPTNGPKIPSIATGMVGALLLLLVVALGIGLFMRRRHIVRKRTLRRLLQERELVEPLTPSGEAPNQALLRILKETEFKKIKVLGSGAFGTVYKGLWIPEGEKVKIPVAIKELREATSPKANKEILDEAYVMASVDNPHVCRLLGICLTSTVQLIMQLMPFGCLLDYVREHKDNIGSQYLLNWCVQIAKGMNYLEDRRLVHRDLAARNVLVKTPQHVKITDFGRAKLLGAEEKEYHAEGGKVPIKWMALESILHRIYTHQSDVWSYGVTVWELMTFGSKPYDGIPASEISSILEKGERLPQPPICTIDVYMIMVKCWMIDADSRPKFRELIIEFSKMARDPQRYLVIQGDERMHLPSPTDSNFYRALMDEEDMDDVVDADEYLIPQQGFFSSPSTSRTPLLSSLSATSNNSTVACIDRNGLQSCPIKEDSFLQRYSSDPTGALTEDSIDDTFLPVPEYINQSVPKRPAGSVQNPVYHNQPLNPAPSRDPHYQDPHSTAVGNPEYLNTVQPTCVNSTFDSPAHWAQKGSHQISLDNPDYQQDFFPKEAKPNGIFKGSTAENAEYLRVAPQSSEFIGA
Sequence of EGFR L858R/T790M/C797S mutant (P00533 25-1210 T790M/C797S/L858R): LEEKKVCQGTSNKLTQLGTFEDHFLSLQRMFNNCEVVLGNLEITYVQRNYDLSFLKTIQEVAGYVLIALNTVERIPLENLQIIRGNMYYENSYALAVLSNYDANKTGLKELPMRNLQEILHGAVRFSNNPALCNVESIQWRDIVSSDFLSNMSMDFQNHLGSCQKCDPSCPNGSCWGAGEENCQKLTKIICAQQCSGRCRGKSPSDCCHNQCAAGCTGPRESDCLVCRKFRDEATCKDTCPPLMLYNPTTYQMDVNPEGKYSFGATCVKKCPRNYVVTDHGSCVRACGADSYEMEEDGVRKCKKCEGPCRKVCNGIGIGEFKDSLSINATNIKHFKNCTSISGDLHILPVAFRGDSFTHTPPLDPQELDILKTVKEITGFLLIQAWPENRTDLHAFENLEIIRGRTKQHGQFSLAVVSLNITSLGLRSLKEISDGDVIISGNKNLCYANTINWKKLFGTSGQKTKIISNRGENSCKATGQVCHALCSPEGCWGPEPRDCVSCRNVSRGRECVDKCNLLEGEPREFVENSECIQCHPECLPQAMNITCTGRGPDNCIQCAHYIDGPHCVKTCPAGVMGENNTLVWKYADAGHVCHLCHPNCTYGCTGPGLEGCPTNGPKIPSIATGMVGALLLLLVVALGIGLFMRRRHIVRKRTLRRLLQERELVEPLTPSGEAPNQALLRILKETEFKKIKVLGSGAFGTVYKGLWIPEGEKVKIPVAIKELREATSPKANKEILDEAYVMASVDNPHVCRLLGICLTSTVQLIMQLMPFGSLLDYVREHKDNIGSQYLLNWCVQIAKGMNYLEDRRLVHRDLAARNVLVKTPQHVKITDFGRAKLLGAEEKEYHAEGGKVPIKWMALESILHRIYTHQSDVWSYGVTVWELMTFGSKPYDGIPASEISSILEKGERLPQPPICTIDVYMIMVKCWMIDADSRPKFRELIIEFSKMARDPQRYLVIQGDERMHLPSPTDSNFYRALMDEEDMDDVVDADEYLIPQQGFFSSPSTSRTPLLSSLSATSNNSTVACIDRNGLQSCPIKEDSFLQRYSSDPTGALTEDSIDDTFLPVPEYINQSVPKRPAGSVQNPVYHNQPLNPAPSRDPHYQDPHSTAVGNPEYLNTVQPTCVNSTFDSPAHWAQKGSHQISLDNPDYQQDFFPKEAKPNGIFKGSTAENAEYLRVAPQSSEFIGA
Sequence of EGFR (D770_N771insNPG) (P00533 other isoform, or with tags, fused parts or gaps del 1-668/ins NPG behind 770 limits assumed): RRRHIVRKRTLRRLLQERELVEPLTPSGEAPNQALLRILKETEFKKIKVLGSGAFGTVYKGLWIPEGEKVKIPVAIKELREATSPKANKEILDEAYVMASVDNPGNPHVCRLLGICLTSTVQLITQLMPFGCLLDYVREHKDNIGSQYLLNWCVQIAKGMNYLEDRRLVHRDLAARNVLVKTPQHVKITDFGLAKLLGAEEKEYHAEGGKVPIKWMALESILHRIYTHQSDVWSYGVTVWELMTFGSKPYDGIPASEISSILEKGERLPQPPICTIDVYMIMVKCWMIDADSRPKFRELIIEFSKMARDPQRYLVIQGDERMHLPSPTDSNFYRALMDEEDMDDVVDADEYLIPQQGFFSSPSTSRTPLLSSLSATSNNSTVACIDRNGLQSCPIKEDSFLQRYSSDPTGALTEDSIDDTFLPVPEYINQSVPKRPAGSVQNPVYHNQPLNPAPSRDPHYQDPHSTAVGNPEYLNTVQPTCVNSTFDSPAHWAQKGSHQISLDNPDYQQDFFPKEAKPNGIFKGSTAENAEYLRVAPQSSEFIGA
Sequence of EGFR Δ746-750/C797S mutant (P00533 other isoform, or with tags, fused parts or gaps C797S/del 1-668/del 746-750 limits assumed): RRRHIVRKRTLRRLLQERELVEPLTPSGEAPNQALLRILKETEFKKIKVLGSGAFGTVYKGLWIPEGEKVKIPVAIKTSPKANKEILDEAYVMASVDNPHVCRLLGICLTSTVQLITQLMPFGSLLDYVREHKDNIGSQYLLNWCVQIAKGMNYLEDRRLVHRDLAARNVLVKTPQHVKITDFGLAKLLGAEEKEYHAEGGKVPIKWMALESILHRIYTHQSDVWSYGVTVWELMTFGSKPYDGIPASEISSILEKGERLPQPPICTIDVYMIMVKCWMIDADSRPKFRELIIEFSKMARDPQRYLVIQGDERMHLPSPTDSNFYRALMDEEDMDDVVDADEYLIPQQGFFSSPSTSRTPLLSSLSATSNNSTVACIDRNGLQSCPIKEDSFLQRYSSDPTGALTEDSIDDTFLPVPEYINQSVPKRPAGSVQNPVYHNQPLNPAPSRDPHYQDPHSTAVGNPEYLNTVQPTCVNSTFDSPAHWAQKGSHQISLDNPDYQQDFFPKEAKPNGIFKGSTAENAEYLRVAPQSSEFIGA
Sequence of EGFR Δ746-750 mutant (P00533 other isoform, or with tags, fused parts or gaps del 1-668/del 746-750 limits assumed): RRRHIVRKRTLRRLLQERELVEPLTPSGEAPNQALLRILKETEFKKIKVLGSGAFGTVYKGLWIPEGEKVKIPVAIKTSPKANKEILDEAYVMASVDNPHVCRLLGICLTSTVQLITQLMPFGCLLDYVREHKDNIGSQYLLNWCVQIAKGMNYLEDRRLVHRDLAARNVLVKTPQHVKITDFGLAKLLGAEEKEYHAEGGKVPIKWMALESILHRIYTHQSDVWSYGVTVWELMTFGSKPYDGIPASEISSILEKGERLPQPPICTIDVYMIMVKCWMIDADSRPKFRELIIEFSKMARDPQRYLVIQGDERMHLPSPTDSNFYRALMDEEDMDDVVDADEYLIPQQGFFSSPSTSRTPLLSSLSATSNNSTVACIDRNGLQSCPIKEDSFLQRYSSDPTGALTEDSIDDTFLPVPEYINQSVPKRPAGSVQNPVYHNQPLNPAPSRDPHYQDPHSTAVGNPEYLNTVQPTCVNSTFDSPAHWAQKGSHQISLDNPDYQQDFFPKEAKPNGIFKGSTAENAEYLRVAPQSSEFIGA

Row | SMILES | IC50 (EGFR L858R mutant) | IC50 (EGFR Δ746-750 mutant) | IC50 [1] | IC50 (EGFR (D770_N771insNPG)) | IC50 (EGFR WT) | IC50 (EGFR L858R/T790M mutant) | IC50 [2]
1 | Cc1nn(CCO)c2c1/C=C/c1n[nH]c3ccc(cc13)-c1cnn(C)c1OC(C1CCC1)CN(C)C2 (centres unmarked) [Example 152, 2-[(17E)-10-cyclobutyl-8,12,16-trimethyl-2,8,10,11,12,13-hexahydro-14H-3,5-ethenotripyrazolo[3,4-f:3′,4′-j:4″,3″-n][1,4]oxazacyclopentadecin-14-yl]ethan-1-ol] | 20.7 nM | 61.5 nM | 86.4 nM | 94.5 nM | 112 nM | 0.58 nM | 0.62 nM
2 | C[C@H]1CN(C)Cc2c(c(OC3CCNCC3)nn2C)/C=C/c2n[nH]c3ccc(cc23)-c2cnn(C)c2O1 [Example 136, (10S,17E)-8,10,12,14-tetramethyl-16-[(piperidin-4-yl)oxy]-2,10,11,12,13,14-hexahydro-8H-3,5-ethenotripyrazolo[3,4-f:3′,4′-j:4″,3″-n][1,4]oxazacyclopentadecine] | 14.6 nM | 15.2 nM | 12.1 nM | 334 nM | 103 nM | 0.8 nM | 1.54 nM
3 | Cc1nn([C@H]2C[C@@H](N(C)CCN(C)C)C2)c2c1/C=C/c1n[nH]c3ccc(cc13)-c1cnn(C)c1OCCCO2 [Example 103, N^1-{(1s,3s)-3-[(17E)-8,16-dimethyl-2,8,11,12-tetrahydro-10H,14H-3,5-etheno[1,5]dioxacyclopentadecino[10,11-c:15,14-c′:6,7-c″]tripyrazol-14-yl]cyclobutyl}-N^1,N^2,N^2-trimethylethane-1,2-diamine] | 103 nM | 105 nM | 171 nM | 344 nM | 358 nM | 11.5 nM | 40.4 nM
4 | CCOc1ccc2c(n1)/C=C/c1n[nH]c3ccc(cc13)-c1cnn(C)c1O[C@@H](C)CN(C)C2 [Ex. 267, (10S,18E)-16-ethoxy-8,10,12-trimethyl-2,8,10,11,12,13-hexahydro-3,5-ethenodipyrazolo[3,4-j:4′,3′-n]pyrido[3,2-f][1,4]oxazacyclopentadecine] | 241 nM | 117 nM | 107 nM | 1230 nM | 769 nM | 8.31 nM | 5.42 nM
5 | Cc1nn(CCO)c2c1/C=C/c1n[nH]c3ccc(cc13)-c1cnn(C)c1CN(C)CCO2 [Example 56, 2-[(17E)-8,10,16-trimethyl-2,8,9,10,11,12-hexahydro-14H-3,5-ethenotripyrazolo[3,4-f:4′,3′-j:4″,3″- n][1,4]oxazacyclopentadecin-14-yl]ethan-1-ol] | 22.2 nM | 15 nM | 8.48 nM | 50 nM | 42.7 nM | 1.22 nM | 1.12 nM
6 | Cn1ncc2c1OCCCOc1nn3ccn(C)c(=O)c3c1/C=C/c1n[nH]c3ccc-2cc13 [Example 91, (20E)-8,18-dimethyl-2,8,11,12-tetrahydro-10H-3,5-ethenodipyrazolo[3″,4″:10′,11′;4′″,3′″:14′,15′][1,5]dioxacyclopentadecino[6′,7′:3,4]pyrazolo[1,5-a]pyrazin-19(18H)-one] | > 1000 nM | > 1000 nM | > 1000 nM | > 1000 nM | > 1000 nM | 400 nM | > 1000 nM
7 | CCOc1nn(CCO)c2c1/C=C/c1n[nH]c3ccc(cc13)-c1cnn(C)c1O[C@H]1CN(C)C[C@@H]1N(C)C2 (single isomer, unassigned) [Ex. 270] | 161 nM | 93.6 nM | 20.5 nM | 635 nM | 543 nM | 4.58 nM | 1.1 nM
8 | C[C@H]1CN(C)Cc2c(c(CN(C)C)nn2CCO)/C=C/c2n[nH]c3ccc(cc23)-c2cnn(C)c2O1 [Ex. 266, 2-{(10S,17E)-16-[(dimethylamino)methyl]-8,10,12-trimethyl-2,8,10,11,12,13-hexahydro-14H-3,5-ethenotripyrazolo[3,4-f:3′,4′-j:4″,3″-n][1,4]oxazacyclopentadecin-14-yl}ethan-1-ol] | > 1000 nM | 971 nM | 577 nM | > 1000 nM | > 1000 nM | 282 nM | 60.4 nM
9 | Cc1c2c(nn1CCN1CCN(C)CC1)CN(C)C[C@H](C)Oc1c(cnn1C)-c1ccc3[nH]nc(c3c1)/C=C/2 [Example 90, (10S,17E)-8,10,12,16-tetramethyl-15-[2-(4-methylpiperazin-1-yl)ethyl]-2,10,11,12,13,15-hexahydro-8H-3,5-ethenotripyrazolo[3,4-f:3′,4′-j:4″,3″-n][1,4]oxazacyclopentadecine] | 1.02 nM | 11.6 nM | 4.65 nM | 81.8 nM | 17.1 nM | 0.06 nM | 0.81 nM
10 | Cc1nn([C@H]2CCNC[C@@H]2O)c2c1/C=C/c1n[nH]c3ccc(cc13)-c1cnn(C)c1OCCCO2 (racemic) [Example 80, (rac)-4-[(17E)-8,16-dimethyl-2,8,11,12-tetrahydro-10H,14H-3,5-etheno[1,5]dioxacyclopentadecino[10,11-c:15,14-c′:6,7-c′]tripyrazol-14-yl]piperidin-3-ol] | 24.7 nM | 38.7 nM | 39.2 nM | 59.1 nM | 50.8 nM | 4.37 nM | 11.2 nM
11 | Cc1c2c(nn1[C@H]1C[C@@H](N(C)CCN(C)C)C1)OCCCOc1c(cnn1C)-c1ccc3[nH]nc(c3c1)/C=C/2 [Example 102, N^1—{(1s,3s)-3-[(17E)-8,16-dimethyl-2,8,11,12-tetrahydro-10H,15H-3,5-etheno[1,5]dioxacyclopentadecino[10,11-c:15,14-c′:6,7-c′]tripyrazol-15-yl]cyclobutyl}-N^1,N—,N^2-trimethylethane-1,2-diamine] | 25.4 nM | 48.1 nM | 44.7 nM | 94.5 nM | 62.4 nM | 4.1 nM | 13.1 nM
12 | Cc1nn(CCN2CCCC2)c2c1/C=C/c1n[nH]c3ccc(cc13)-c1cnn(C)c1C(C)OCCO2 (centres unmarked) [Example 100, (17E)-8,9,16-trimethyl-14-[2-(pyrrolidin-1-yl)ethyl]-2,8,9,11,12,14-hexahydro-3,5-etheno[1,4]dioxacyclopentadecino[11,10-c:15,14-c′:6,7-c″]tripyrazole] | 87.7 nM | 198 nM | 91 nM | 250 nM | 290 nM | 10.4 nM | 19.2 nM
13 | Cc1nn(C)c2c1/C=C/c1n[nH]c3ccc(cc13)-c1cnn(C)c1O[C@@H](C)CN(C1COC1)C2 [Example 140, (10S,17E)-8,10,14,16-tetramethyl-12-(oxetan-3-yl)-2,10,11,12,13,14-hexahydro-8H-3,5-ethenotripyrazolo[3,4-f:3′,4′-j:4″,3″-n][1,4]oxazacyclopentadecine] | 11.6 nM | 9.35 nM | 6.14 nM | 186 nM | 84.8 nM | 1.19 nM | 1.3 nM
14 | CCc1nn(CCO)c2c1/C=C/c1n[nH]c3ccc(cc13)-c1cnn(C)c1O[C@@H](C)CN(C)C2 [Example 129, 2-[(10S,17E)-16-ethyl-8,10,12-trimethyl-2,8,10,11,12,13-hexahydro-14H-3,5-ethenotripyrazolo[3,4-f:3′,4′-j:4″,3″-n][1,4]oxazacyclopentadecin-14-yl]ethan-1-ol] | 0.47 nM | 0.58 nM | 0.4 nM | 6.5 nM | 3.02 nM | 0.09 nM | 0.33 nM
15 | Cc1nn(C2CCN(C)C2)c2c1/C=C/c1n[nH]c3ccc(cc13)-c1cnn(C)c1CN(C)CCO2 (centres unmarked) [Example 118, (17E)-8,10,16-trimethyl-14-(1-methylpyrrolidin-3-yl)-2,9,10,11,12,14-hexahydro-8H-3,5-ethenotripyrazolo[3,4-f:4′,3′-j:4″,3″-n][1,4]oxazacyclopentadecine] | 34.4 nM | 21.1 nM | 31.7 nM | 65.7 nM | 130 nM | 4.65 nM | 8.42 nM
16 | Cn1ncc2c1COCCOc1ccccc1/C=C/c1n[nH]c3ccc-2cc13 [Ex. 1, (11E)-1-methyl-1,18,19,21-tetrahydro-8H-10,7,4-(ethan[1]yl[1,2]diylidene)pyrazolo[3,4-f][1,4,12,13]benzodioxadiazacyclooctadecine] | 848 nM | 68.4 nM | 177 nM | > 1000 nM | > 1000 nM | 251 nM | 259 nM
17 | CCOc1nn(CCO)c2c1/C=C/c1n[nH]c3ccc(cc13)-c1cnn(C)c1O[C@@H]1CN(C)C[C@H]1N(C)C2 (single isomer, unassigned) [Ex. 271] | 1580 nM | 472 nM | 422 nM | > 1000 nM | > 1000 nM | 56.7 nM | 31.6 nM
